Experimental data reported in patent publication US20070128217A1 (priority 2003, published 2007).

Tests used:
[1] = system: control sera (pooled serum of ten healthy LUMC hospital workers; commercial negative donor pooled serum from the Dutch bloodbank); format: binding, human; parameters: Binding of Control serum LUMC to linear peptides / Binding of Control serum Blood-bank to linear peptides / Binding of Control serum LUMC to looped peptides / Binding of Control Serum Blood-Bank to Looped peptides / Binding of Control serum LUMC to linear peptides of the protein M of SARS-CoV Urbani / Binding of Control serum Blood-bank to linear peptides of the protein M of SARS-CoV Urbani / Binding of Control serum LUMC to looped peptides of the protein M of SARS-CoV Urbani / Binding of Control Serum Blood-Bank to Looped peptides of the protein M of SARS-CoV Urbani: unit not given here
[2] = system: antibodies in sera from SARS patients (sera 1a, 1b, 2, 6, 37, 62, London, SARS-yellow, SARS-green); format: binding, human; parameters: Binding of serum 6 to linear peptides of protein X1 of SARS-CoV Urbani / Binding of serum 37 to linear peptides of protein X1 of SARS-CoV Urbani / Binding of serum 6 to looped/cyclic peptide (PEPSCAN-ELISA) / Binding of serum 37 to looped/cyclic peptide (PEPSCAN-ELISA) / Binding of serum 37 to looped/cyclic peptides of protein X1 of SARS-CoV Urbani / Binding of serum 6 to linear peptides of protein X2 / Binding of serum 37 to linear peptides of protein X2 / Binding of serum 37 to looped/cyclic peptides of protein X2 of SARS-CoV Urbani / Binding of serum 6 to linear peptides of protein M of SARS-CoV Urbani / Binding of serum 37 to linear peptides of protein M of SARS-CoV Urbani / Binding of serum 6 to looped/cyclic peptides of protein M of SARS-CoV Urbani / Binding of serum 37 to looped/cyclic peptides of protein M of SARS-CoV Urbani / Binding of serum 6 to linear peptides of protein X3 of SARS-CoV Urbani / Binding of serum 37 to linear peptides of protein X3 of SARS-CoV Urbani / Binding of serum 37 to looped/cyclic peptides of protein X3 of SARS-CoV Urbani / Binding of serum 6 to linear peptides of protein X4 of SARS-CoV Urbani / Binding of serum 37 to linear peptides of protein X4 of SARS-CoV Urbani / Binding of serum 37 to looped/cyclic peptides of protein X4 of SARS-CoV Urbani / Binding of serum 6 to linear peptides of protein X5 of SARS-CoV Urbani / Binding of serum 37 to linear peptides of protein X5 of SARS-CoV Urbani / Binding of serum 37 to looped/cyclic peptides of protein X5 of SARS-CoV Urbani / Binding of serum 6 to linear peptides of protein N of SARS-CoV Urbani / Binding of serum 37 to linear peptides of protein N of SARS-CoV Urbani / Binding of serum 6 to linear peptide (PEPSCAN-ELISA) / Binding of serum 1a to looped/cyclic peptides of protein N of SARS-CoV Urbani / Binding of serum 1b to looped/cyclic peptides of protein N of SARS-CoV Urbani / Binding of serum 2 to looped/cyclic peptides of protein N of SARS-CoV Urbani / Binding of serum 6 to looped/cyclic peptides of protein N of SARS-CoV Urbani / Binding of serum 37 to looped/cyclic peptides of protein N of SARS-CoV Urbani / Binding of serum 62 to looped/cyclic peptides of protein N of SARS-CoV Urbani / Binding of serum London to looped/cyclic peptides of protein N of SARS-CoV Urbani / Binding of serum SARS-green to looped/cyclic peptides of protein N of SARS-CoV Urbani: unit not given here
[3] = system: rabbit serum obtained by immunizing a rabbit with the SARS-CoV strain Frankfurt 1; format: binding; parameters: Binding of a rabbit serum to linear peptides / Binding of a rabbit serum to looped peptides / Rabbit serum linear peptides / Rabbit serum looped peptides / Binding of a rabbit serum to linear peptides of protein N of SARS-CoV Urbani (Rabbit serum linear peptides) / Binding of a rabbit serum to looped/cyclic peptides of protein N of SARS-CoV Urbani (Rabbit serum looped peptides): unit not given here

Sequence | Binding of Control Serum Blood-Bank to Looped peptides of the protein M of SARS-CoV Urbani [1] | Binding of Control serum Blood-bank to linear peptides of the protein M of SARS-CoV Urbani [1] | Binding of Control serum LUMC to linear peptides of the protein M of SARS-CoV Urbani [1] | Binding of Control serum LUMC to looped peptides of the protein M of SARS-CoV Urbani [1] | Binding of serum 1a to linear peptides of protein M of SARS-CoV Urbani [2] | Binding of serum 1b to linear peptides of protein M of SARS-CoV Urbani [2] | Binding of serum 2 to linear peptides of protein M of SARS-CoV Urbani [2] | Binding of serum 6 to linear peptides of protein M of SARS-CoV Urbani [2] | Binding of serum 37 to linear peptides of protein M of SARS-CoV Urbani [2] | Binding of serum 62 to linear peptides of protein M of SARS-CoV Urbani [2] | Binding of serum London to linear peptides of protein M of SARS-CoV Urbani [2] | Binding of serum SARS-green to linear peptides of protein M of SARS-CoV Urbani [2] | Binding of serum SARS-yellow to linear peptides of protein M of SARS-CoV Urbani [2] | Recognition of the peptide by sera of SARS-CoV infected individuals, and form (linear, looped/cyclic) in which it is recognized [2] | Rabbit serum linear peptides [3] | Rabbit serum looped peptides [3] | Binding of Control Serum Blood-Bank to Looped peptides [1] | Binding of Control serum Blood-bank to linear peptides [1] | Binding of Control serum LUMC to linear peptides [1] | Binding of Control serum LUMC to looped peptides [1] | further results
RFLYIIKLVFLWLLW | 0.7 | 0.7 | 0.8 | 0.8 | 0.7 | 0.7 | 0.6 | 0.8 | 0.4 | 0.4 | 0.6 | 0.6 | 0.3 | recognized in looped/cyclic form | 0.2 | 0.3 |  |  |  |  | 
RHTYQLRARSVSPKL |  |  |  |  |  |  |  |  |  |  |  |  |  |  |  |  | 0.6 | 0.8 | 0.7 | 0.7 | Binding of serum 1a to linear peptides of protein X4 of SARS-CoV Urbani [2]: 0.8; Binding of serum 1a to looped/cyclic peptides of protein X4 of SARS-CoV Urbani [2]: 0.8; Binding of serum 1b to linear peptides of protein X4 of SARS-CoV Urbani [2]: 0.6; Binding of serum 1b to looped/cyclic peptides of protein X4 of SARS-CoV Urbani [2]: 0.5; Binding of serum 2 to linear peptides of protein X4 of SARS-CoV Urbani [2]: 0.6; Binding of serum 2 to looped/cyclic peptides of protein X4 of SARS-CoV Urbani [2]: 0.7; Binding of serum 6 to linear peptides of protein X4 of SARS-CoV Urbani [2]: 1.1; Binding of serum 6 to looped/cyclic peptides of protein X4 of SARS-CoV Urbani [2]: 0.8; Binding of serum 37 to linear peptides of protein X4 of SARS-CoV Urbani [2]: 0.9; Binding of serum 37 to looped/cyclic peptides of protein X4 of SARS-CoV Urbani [2]: 0.7; Binding of serum 62 to linear peptides of protein X4 of SARS-CoV Urbani [2]: 0.8; Binding of serum 62 to looped/cyclic peptides of protein X4 of SARS-CoV Urbani [2]: 0.6; Binding of serum London to linear peptides of protein X4 of SARS-CoV Urbani [2]: 0.8; Binding of serum London to looped/cyclic peptides of protein X4 of SARS-CoV Urbani [2]: 0.3; Binding of serum SARS-green to linear peptides of protein X4 of SARS-CoV Urbani [2]: 0.7; Binding of serum SARS-green to looped/cyclic peptides of protein X4 of SARS-CoV Urbani [2]: 0.4; Binding of serum SARS-yellow to linear peptides of protein X4 of SARS-CoV Urbani [2]: 0.6; Binding of serum SARS-yellow to looped/cyclic peptides of protein X4 of SARS-CoV Urbani [2]: 0.7; Recognition of the peptide by the rabbit serum [3]: recognized
RIIMRCWLCWKCKSK |  |  |  |  |  |  |  |  |  |  |  |  |  | recognized in linear form |  |  | 0.3 | 0.3 | 0.2 | 0.3 | Binding of serum 1a to looped/cyclic peptide (PEPSCAN-ELISA) [2]: 0.2; Binding of serum 1b to looped/cyclic peptide (PEPSCAN-ELISA) [2]: 0.2; Binding of serum 2 to looped/cyclic peptide (PEPSCAN-ELISA) [2]: 0.1; Binding of serum 6 to looped/cyclic peptide (PEPSCAN-ELISA) [2]: 0.1; Binding of serum 37 to looped/cyclic peptide (PEPSCAN-ELISA) [2]: 0.2; Binding of serum 62 to looped/cyclic peptide (PEPSCAN-ELISA) [2]: 0.3; Binding of serum London to looped/cyclic peptide (PEPSCAN-ELISA) [2]: 0.1; Binding of serum SARS-green to looped/cyclic peptide (PEPSCAN-ELISA) [2]: 0.1; Binding of serum SARS-yellow to looped/cyclic peptide (PEPSCAN-ELISA) [2]: 0.1; Binding of a rabbit serum to linear peptides [3]: 0.1; Binding of a rabbit serum to looped peptides [3]: 0.3
RINWVTGGIAIAMAC | 0.5 | 0.8 | 0.8 | 0.8 | 0.7 | 0.7 | 0.6 | 0.8 | 0.5 | 0.5 | 0.5 | 0.6 | 0.3 |  | 0.2 | 0.4 |  |  |  |  | Binding of serum 1a to looped/cyclic peptides of protein M of SARS-CoV Urbani [2]: 0.7; Binding of serum 1b to looped/cyclic peptides of protein M of SARS-CoV Urbani [2]: 0.2; Binding of serum 2 to looped/cyclic peptides of protein M of SARS-CoV Urbani [2]: 0.6; Binding of serum 6 to looped/cyclic peptides of protein M of SARS-CoV Urbani [2]: 0.4; Binding of serum 37 to looped/cyclic peptides of protein M of SARS-CoV Urbani [2]: 0.7; Binding of serum 62 to looped/cyclic peptides of protein M of SARS-CoV Urbani [2]: 0.7; Binding of serum London to looped/cyclic peptides of protein M of SARS-CoV Urbani [2]: 0.2; Binding of serum SARS-green to looped/cyclic peptides of protein M of SARS-CoV Urbani [2]: 0.3; Binding of serum SARS-yellow to looped/cyclic peptides of protein M of SARS-CoV Urbani [2]: 0.7
RLFARTRSMWSFNPE | 0.7 | 0.8 | 0.5 | 0.5 | 0.9 | 0.9 | 0.6 | 0.4 | 1.0 | 0.9 | 0.4 | 0.5 | 0.1 |  | 0.4 | 0.0 |  |  |  |  | Binding of serum 1a to looped/cyclic peptides of protein M of SARS-CoV Urbani [2]: 0.7; Binding of serum 1b to looped/cyclic peptides of protein M of SARS-CoV Urbani [2]: 0.8; Binding of serum 2 to looped/cyclic peptides of protein M of SARS-CoV Urbani [2]: 0.5; Binding of serum 6 to looped/cyclic peptides of protein M of SARS-CoV Urbani [2]: 0.8; Binding of serum 37 to looped/cyclic peptides of protein M of SARS-CoV Urbani [2]: 0.6; Binding of serum 62 to looped/cyclic peptides of protein M of SARS-CoV Urbani [2]: 0.6; Binding of serum London to looped/cyclic peptides of protein M of SARS-CoV Urbani [2]: 0.2; Binding of serum SARS-green to looped/cyclic peptides of protein M of SARS-CoV Urbani [2]: 0.4; Binding of serum SARS-yellow to looped/cyclic peptides of protein M of SARS-CoV Urbani [2]: 0.4
